The test deals with T1, human Kv 1.5 channel (hKv 1.5) (Homo sapiens, UniProt P22460).
T1 construct: expressed in transfected cells
In words: Ultrarapid potassium current (IKur), whole-cell patch-clamp in HEK 293-hKv 1.5 cells. It is filed as cell-based. The source says:
The cardiac action potential is the basic electrical unit of excitable cardiac cells and represents the activity of several types of ion channels responsible for the various phases of the action potential. Different types of action potentials correspond to different cardiac regions, thus allowing sequential and coordinated activity in these regions. For this reason, Kv 1.5 potassium channels, coded by the KCNA5 gene, are expressed only in auricle tissue and are responsible for the ultrarapid potassium current (IKur) which acts in the repolarization of the auricular action potential. This highly localized expression of Kv 1.5 is in fact a target of choice in the treatment of auricular fibrillation, a pathology in which changes in auricular action potentials are observed.
Thus, the effects of DHA and EPA on IKur were studied. For this purpose, the human isoform of the Kv 1.5 channel (hKv 1.5) was transfected in a stable manner in HEK 293 (human embryonic kidney) cells and the current resulting from the activity of these channels was studied using a whole-cell patch-clamp technique.
HEK 293-hKv 1.5 cells are grown under standard conditions (37° C., incubator at […] and 5% CO2) in Falcon dishes up to 80% confluence. They are then removed and cultured in 35 mm petri dishes containing the following culture medium: DMEM (Invitrogen); 10% fetal bovine serum (Invitrogen); a mixture of 100 U/ml penicillin, 100 μg/ml streptomycin and 0.25 mg/ml glutamine (Invitrogen); and 1.25 mg/ml of Geneticin® as a selective antibiotic.
IKur is studied using the whole-cell patch-clamp technique at ambient temperature (19-22° C.). The pipette medium contains: 125 mM K-aspartate, 20 mM KCl, 10 mM EGTA, 5 mM HEPES, 5 mM Mg-ATP, 1 mM MgCl2, pH 7.3 (KOH). The extracellular medium contains: 140 mM NaCl, 20 mM HEPES, 5 mM D(+)-glucose, 5 mM KCl, 2 mM CaCl2, 1 mM MgCl2, pH 7.4 (NaOH).
IKur is induced every 15 seconds by 300 ms, +60 mV depolarizing pulses from a −80 mV holding potential, followed by −50 mV repolarization. The amplitude of the current peak is established from the maximum current obtained during the first 100 ms of the depolarizing pulse. The amplitude of the current at the end of the pulse is determined during the last 20 ms of the depolarizing pulse.
DHA and EPA are supplied by Sigma. Stock solutions (10 mM) are prepared in ethanol and the final concentration of solvent is 0.25%.

The structures appear in SMILES notation. Where two headings read alike, the source gives them in different places.

T1 sequence (P22460 whole entry): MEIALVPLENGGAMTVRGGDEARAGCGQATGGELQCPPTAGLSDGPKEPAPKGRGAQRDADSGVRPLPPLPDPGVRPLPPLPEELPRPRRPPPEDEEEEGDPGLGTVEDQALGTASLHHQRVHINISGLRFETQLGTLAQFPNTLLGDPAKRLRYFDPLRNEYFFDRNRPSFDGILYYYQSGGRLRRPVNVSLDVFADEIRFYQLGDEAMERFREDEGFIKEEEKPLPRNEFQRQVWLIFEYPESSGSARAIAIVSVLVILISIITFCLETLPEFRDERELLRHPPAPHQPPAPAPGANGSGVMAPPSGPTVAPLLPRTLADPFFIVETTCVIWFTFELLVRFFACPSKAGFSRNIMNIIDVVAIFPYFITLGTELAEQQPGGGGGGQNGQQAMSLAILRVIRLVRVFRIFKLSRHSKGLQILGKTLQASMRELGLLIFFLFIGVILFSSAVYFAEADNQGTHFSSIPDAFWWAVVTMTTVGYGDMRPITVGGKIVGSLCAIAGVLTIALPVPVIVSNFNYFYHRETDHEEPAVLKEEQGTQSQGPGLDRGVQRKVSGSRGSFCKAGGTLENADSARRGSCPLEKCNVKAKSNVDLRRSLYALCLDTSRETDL

With `CC/C=C\C/C=C\C/C=C\C/C=C\C/C=C\C/C=C\CCC(=O)O` [DHA, docosahexaenoic acid], the inhibition at 1 µM by setting is: (1 μM, HEK 293-hKv 1.5, +60 mV pulse, max current in first 100 ms, read-out: Percent inhibition of Peak IKur, Mean) 8.2%; (1 μM, HEK 293-hKv 1.5, last 20 ms of 300 ms depolarizing pulse, read-out: Percent inhibition of End of pulse IKur, Mean) 10.1%. Also, the inhibition at 3.2 µM by setting is: (3.2 μM, HEK 293-hKv 1.5, +60 mV pulse, max current in first 100 ms, read-out: Percent inhibition of Peak IKur, Mean) 10.9%; (3.2 μM, HEK 293-hKv 1.5, last 20 ms of 300 ms depolarizing pulse, read-out: Percent inhibition of End of pulse IKur, Mean) 14.5%. Also, the inhibition at 5.6 µM is, setting by setting: (HEK 293-hKv 1.5, +60 mV pulse, max current in first 100 ms, read-out: Percent inhibition of Peak IKur, Mean) 15.4%; (HEK 293-hKv 1.5, last 20 ms of 300 ms depolarizing pulse, read-out: Percent inhibition of End of pulse IKur, Mean) 33.7%. Further, the inhibition at 10 µM runs as follows: (10 μM, HEK 293-hKv 1.5, +60 mV pulse, max current in first 100 ms, read-out: Percent inhibition of Peak IKur, Mean) 22.6%; (10 μM, HEK 293-hKv 1.5, last 20 ms of 300 ms depolarizing pulse, read-out: Percent inhibition of End of pulse IKur, Mean) 78%. In addition, the inhibition at 25 µM (25 μM, HEK 293-hKv 1.5, +60 mV pulse, max current in first 100 ms, read-out: Percent inhibition of Peak IKur, Mean) is 58.1 ± 13.6% and the inhibition at 25 µM (25 μM, HEK 293-hKv 1.5, last 20 ms of 300 ms depolarizing pulse, read-out: Percent inhibition of End of pulse IKur, Mean) is 86.5 ± 3.4%.
Consider `CC/C=C\C/C=C\C/C=C\C/C=C\C/C=C\CCCC(=O)O` [EPA], for which the “Percent inhibition of Peak IKur, Mean” value runs as follows: (1 μM, HEK 293-hKv 1.5, +60 mV pulse, max current in first 100 ms) 14.6%; (3.2 μM, HEK 293-hKv 1.5, +60 mV pulse, max current in first 100 ms) 16.1%; (10 μM, HEK 293-hKv 1.5, +60 mV pulse, max current in first 100 ms) 17.5±6.4%; (25 μM, HEK 293-hKv 1.5, +60 mV pulse, max current in first 100 ms) 5.4%. The “Percent inhibition of End of pulse IKur, Mean” value (1 μM, HEK 293-hKv 1.5, last 20 ms of 300 ms depolarizing pulse) is listed as 14.9%; the “Percent inhibition of End of pulse IKur, Mean” value (3.2 μM, HEK 293-hKv 1.5, last 20 ms of 300 ms depolarizing pulse) was 19.9%; the “Percent inhibition of End of pulse IKur, Mean” value (10 μM, HEK 293-hKv 1.5, last 20 ms of 300 ms depolarizing pulse) stood at 36.6%; the “Percent inhibition of End of pulse IKur, Mean” value (25 μM, HEK 293-hKv 1.5, last 20 ms of 300 ms depolarizing pulse) stood at 61.6±7.3%.

The values above are taken from patent publication US8034377B2, “DHA esters and use thereof in treatment and prevention of cardiovascular disease” (Pierre Fabre Medicament, priority 2006, dated 2011).
